Test results published in patent US9017645B2, “Homoglutamic acid derivatives” (Piramal Imaging SA, priority 2009, dated 2015).

Test system: H460 cells
Experiment: Cell-competition experiment: uptake of radiolabeled glutamic acid derivative into tumor cells
Format: cell-based, human
Settings: competitor 1 mM and 0.1 mM, 30 min incubation in PBS
Procedure: FIG. 7: Biological activity of (2S)-2-Amino-5-(4-cyano-3-fluorobenzyl)hexanedioic acid in a cell-competition-experiment (H460 cells, 30 min incubation with radiolabeled glutamic acid derivative in PBS-Puffer, concentration of competitor 1 mM and 0.1 mM).
The ability of (2S)-2-Amino-5-(4-cyano-3-fluorobenzyl)hexanedioic acid to compete with uptake of glutamic acid derivatives into tumor cells was examined. Therefore, tumor cells were co-incubated with a radiolabeled glutamic acid derivative and (2S)-2-Amino-5-(4-cyano-3-fluorobenzyl)hexanedioic acid. This compounds was used in large excess to the tracer. Two concentrations were examined (1 mM an 0.1 mM).

## N#Cc1ccc(CC(CC[C@H](N)C(=O)O)C(=O)O)cc1F (stereo partly drawn) [(2S)-2-Amino-5-(4-cyano-3-fluorobenzyl)hexanedioic acid]
  uptake of radiolabeled glutamic acid derivative into tumor cells (competition): strongly reduces the uptake
